# Results published in patent publication EP4436582B1, “2-METHOXYESTRADIOL FOR USE IN THE TREATMENT OF MASTOCYTOSIS” (Gdanski Uniwersytet Medyczny, priority 2021, dated 2023).
# Key:
# [1] = system: HMC 1.1 line (containing the p.V560G mutation)
# Experimental: (§1) Used in the research were four mastocyte cell lines: • HMC-1.1 containing the pV560G KIT gene mutation; • HMC-1.2 containing the pG560V and pD816V KIT gene mutations, • ROSA KIT D816V containing the pD816V KIT mutation; • ROSA KIT WT - line containing no KIT mutation [21-23].
# (§2) The culture was grown in a cell incubator at the temperature of 37 °C and at 5% CO2 content, in sterile conditions in a chamber with laminar flow of sterile air. Used was Iscove's Modified Dulbecco's Medium (Merck Millipore) supplemented with 1.2 mM of α-thioglycerol, 50 mL of Foetal Bovine Serum (ATCC), and 5 mL of antibiotics (PEN./STREP. 100x, Merck Millipore)
# (§3) The cells were grown for 48 hours on a 96-well plate at the concentrations 5 ×10^4 cells per well for the HMC 1.1. and HMC 1.2 lines, respectively, and at the concentration of 7.5 ×10^4 cells per well for the ROSA KIT D816V and ROSA KIT WT lines.
# (§4) Then, the working 2-ME solution was diluted in 100 µL of DMSO so as to obtain the final solution concentrations of 1, 5, and 10 in 100 µL of DMSO, respectively.
# (§5) The control were cells treated with the corresponding amounts of DMSO with no 2-ME added.
# (§6) Following 48 hours into incubation, each well was added 50 µL of the XTT solution (Roche Diagnostics GmbH, Mannheim, Germany) prepared in accordance with the manufacturer's instructions. After 4 hours of cell incubation with XTT the level of absorbance was read using the Cytation 3 Imaging Reader (BioTek, USA) at the wavelength of 560 nm.
# [2] = system: ROSA KIT WT line (without KIT gene mutation)
# Experimental: as §1
# (§7) The culture was grown in a cell incubator at the temperature of 37 °C and at 5% CO2 content. […] Used to grow the culture was Iscove's Modified Dulbecco's Medium (Merck Millipore) added with 50 mL of Foetal Bovine Serum (ATCC), and 5 mL of antibiotics (PEN./STREP. 100x, Merck Millipore), while the medium used for the ROSA KIT WT line was additionally supplemented with bone marrow stem cell growth factor rhSCF (R&D Systems, Minneapolis, USA) in the final concentration of 80 ng/ml.
# as §3, §4, §5, §6
# [3] = system: HMC 1.1 line (containing the p.V560G mutation); assay: cells; settings: Homo sapiens, 48 h
# Experimental: as §1, §2, §3, §4, §5, §6
# [4] = system: ROSA KIT WT line (without KIT gene mutation); assay: cells; settings: 48 h, read-out: inhibited the cell growth by
# Experimental: as §1, §7, §3, §4, §5, §6
smiles,measurement,setting,value
"COc1cc2c(cc1O)CC[C@@H]1[C@@H]2CC[C@]2(C)[C@@H](O)CC[C@@H]12 [2-ME, 2-methoxyestradiol]",cytotoxicity to neoplastic MCs,[1],selectively cytotoxic
same,cytotoxicity to regular MCs,[2],did not demonstrate any such activity
same,viability at 5 µM,"[3]; read-out: cell viability, HMC 1.1 line, 5 µM, 48 hours, remaining viability vs DMSO control",63%
same,viability at 10 µM,"[3]; read-out: cell viability, HMC 1.1 line, 10 µM, 48 hours, remaining viability vs DMSO control",67%
same,inhibition at 1 µM,[3]; read-out: reduced proliferation of cells by,29%
same,viability at 1 µM,"[3]; read-out: viability of the cells, HMC 1.1 line, 1 µM, 48 hours, remaining viability vs DMSO control",71%
same,inhibition at 1 µM,[4],5%
same,inhibition at 5 µM,[4],12%
same,inhibition at 10 µM,[4],14%
